Article PMC9936538, “Structure–Activity Relationship of N-Ethyl-Hexedrone Analogues: Role of the α-Carbon Side-Chain Length in the Mechanism of Action, Cytotoxicity, and Behavioral Effects in Mice” (ACS Chemical Neuroscience, 2023)

Columns and labels:
Swiss CD-1 mice [1] = assay: Horizontal locomotor activity (HLA) in mice; type: in vivo; conditions: for shape of the dose response of HLA: 3, 10, 30 mg/kg i.p., ceiling at highest dose 30 mg/kg; for HLA (total distance traveled in 60 min) vs saline / duration of the significant increase in locomotor activity: 3 mg/kg i.p.; for duration of the significant increase in locomotor activity: 5 min blocks
Protocol: (§1) Male Swiss CD-1 mice (Janvier, Le Genest, France) weighing 30–35 g (6–8 weeks old), housed in temperature-controlled conditions (22 ± 1 °C) under a 12 h light/dark cycle and with free access to food and drinking water (standard laboratory diet, Panlab SL, Barcelona, Spain), were randomly assigned to an experimental group. Efforts were made to minimize animal use and suffering.
In the habituation phase, which lasted for two consecutive days, mice received an intraperitoneal (i.p.) saline injection and were immediately placed into a black Plexiglass OF arena (25 × 25 × 40 cm) under low-light conditions and white noise for 30 min. On the test day, the HLA was measured as described.[8] […] HLA was video-monitored for 1 h and a specific tracking software (Smart 3.0 Panlab, Barcelona, Spain) was used to measure their total traveled distance (in cm). The doses were chosen according to the psychostimulant effect induced by structurally related synthetic cathinones published in previous studies by our research group.[8]

hDAT = molecular target: T1, hDAT (Homo sapiens, UniProt Q01959); assay: Transporter binding, [3H]WIN 35,428 binding at hDAT (HEK293 membranes)
T1 construct: expressed in transfected cells; host or cells: HEK293
T1 sequence (Q01959 whole entry): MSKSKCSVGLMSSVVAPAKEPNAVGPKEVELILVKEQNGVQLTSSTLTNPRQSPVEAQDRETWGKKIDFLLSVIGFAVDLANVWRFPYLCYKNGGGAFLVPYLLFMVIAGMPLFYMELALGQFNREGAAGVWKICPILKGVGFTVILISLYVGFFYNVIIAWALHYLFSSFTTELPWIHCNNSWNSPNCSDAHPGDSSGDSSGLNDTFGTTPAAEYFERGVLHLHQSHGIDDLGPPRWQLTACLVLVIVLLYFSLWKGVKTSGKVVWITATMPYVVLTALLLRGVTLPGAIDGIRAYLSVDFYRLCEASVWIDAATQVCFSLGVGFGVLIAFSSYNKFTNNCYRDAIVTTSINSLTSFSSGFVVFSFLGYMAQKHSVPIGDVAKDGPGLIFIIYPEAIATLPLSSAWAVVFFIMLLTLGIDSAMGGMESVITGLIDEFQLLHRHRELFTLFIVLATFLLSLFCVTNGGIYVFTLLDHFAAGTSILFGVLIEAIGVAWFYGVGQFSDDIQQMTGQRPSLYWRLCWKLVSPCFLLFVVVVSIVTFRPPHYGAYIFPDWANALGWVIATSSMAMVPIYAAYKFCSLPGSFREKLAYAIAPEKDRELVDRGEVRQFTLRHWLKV
Protocol: (§2) For membrane preparation, cells were harvested from 80 to 90% confluent dishes. HEK293 cells were washed with ice-cold phosphate-buffered saline (PBS), mechanically detached from the dish using a plastic scraper, and pelleted by centrifugation (400g for 10 min at 4 °C). The pellet was resuspended in HME buffer (20 mM HEPES NaOH, 1 mM EDTA, 2 mM MgCl2; pH 7.4), subjected to two freeze–thaw cycles in liquid nitrogen and homogenized through sonication at 4 °C. Membranes were then collected by centrifugation (40,000g for 30 min at 4 °C) and resuspended in an appropriate volume of HME buffer. The different membrane preparations aliquots were kept at −80 °C. Protein concentration was determined using the Bio-Rad Protein Reagent (Bio-Rad Laboratories, Hercules, CA).
(§3) Binding assays were performed as described.[6] […] This nonspecific binding also allows subtracting from the total binding values of the binding to other components such as membrane lipids or microfiber filters. Incubation was performed for 1 h at 22 °C. Binding reactions are stopped by rapid filtration of the membranes through GF/C glass microfiber filters presoaked with 0.5% polyethyleneimine and rapid washing with ice-cold wash buffer (120 mM NaCl, 2 mM MgCl2, 10 mM Tris, and 100 μM ZnCl2 for hDAT, and […], 2 mM MgCl2, and 10 mM Tris, for hSERT). Thereafter, the filters are placed into vials, a scintillation cocktail is added and trapped radioactivity is quantified by liquid scintillation counting. Specific binding of each drug to the transporter was defined as the difference between total binding (binding buffer in absence of the drug) and nonspecific binding. For each cathinone, four independent experiments carried out on duplicates were performed.
(§4) For in vitro assays, data were normalized with 100% defined as the mean of the technical replicates in the control group and expressed as mean ± SEM. Nonlinear regression was used to fit the different competition curves. Data were plotted and best fitted to a sigmoidal dose–response curve from which an IC50 or LC50 value was obtained. Transporter ratios were calculated as (1/DAT IC50: 1/SERT IC50). […] The Cheng–Prusoff equation was used to calculate Ki (affinity): Ki = EC50/(1 + [radioligand concentration/Kd]).[65] The sample size for behavioral experiments was determined using GPower software. One-way or two-way ANOVA, and subsequent Tukey’s posthoc test, conducted only if F was significant, was used to determine the effects of cathinones on cytotoxicity, HLA, OF, and CPP experiments. The α error probability was set at 0.05 (p < 0.05). The exact size group for the behavioral experiments is shown in the corresponding figure legends. All statistic calculations were carried out using GraphPad Prism (GraphPad software, San Diego, CA, USA).

Swiss CD-1 mice [2] = assay: Conditioned place preference (CPP); type: in vivo; conditions: for CPP preference score vs saline: 3 mg/kg i.p.
Protocol: as §1
The potential of the studied compounds to induce reward was determined using a place conditioning paradigm, as described.[6] For this experiment, an apparatus with two distinct compartments, with differences in tactile and visual cues, communicated by a central corridor, has been used. In brief, CPP was performed in three phases: preconditioning test, conditioning, and postconditioning test. During the preconditioning phase (day 0), mice were placed in the middle of the corridor and had free access to both compartments for 15 min. The time spent in each compartment was recorded and monitored using a specific tracking software (Smart 3.0 Panlab, Barcelona, Spain). […] In the alternative session, mice received a saline i.p. injection and were placed for 20 min in the other compartment. Mice in the control group received a saline injection in every session. The compartment and session in which mice received the drug were randomized. On the test day (postconditioning phase), the same conditions as in the preconditioning phase were applied. A preference score was calculated as the difference between the time spent in the drug-paired compartment in the postconditioning test minus the time spent in the preconditioning phase.

hSERT = molecular target: T2, hSERT (Homo sapiens, UniProt P31645); assay: Transporter binding, [3H]imipramine binding at hSERT (HEK293 membranes)
T2 construct: expressed in transfected cells; host or cells: HEK293
T2 sequence (P31645 whole entry): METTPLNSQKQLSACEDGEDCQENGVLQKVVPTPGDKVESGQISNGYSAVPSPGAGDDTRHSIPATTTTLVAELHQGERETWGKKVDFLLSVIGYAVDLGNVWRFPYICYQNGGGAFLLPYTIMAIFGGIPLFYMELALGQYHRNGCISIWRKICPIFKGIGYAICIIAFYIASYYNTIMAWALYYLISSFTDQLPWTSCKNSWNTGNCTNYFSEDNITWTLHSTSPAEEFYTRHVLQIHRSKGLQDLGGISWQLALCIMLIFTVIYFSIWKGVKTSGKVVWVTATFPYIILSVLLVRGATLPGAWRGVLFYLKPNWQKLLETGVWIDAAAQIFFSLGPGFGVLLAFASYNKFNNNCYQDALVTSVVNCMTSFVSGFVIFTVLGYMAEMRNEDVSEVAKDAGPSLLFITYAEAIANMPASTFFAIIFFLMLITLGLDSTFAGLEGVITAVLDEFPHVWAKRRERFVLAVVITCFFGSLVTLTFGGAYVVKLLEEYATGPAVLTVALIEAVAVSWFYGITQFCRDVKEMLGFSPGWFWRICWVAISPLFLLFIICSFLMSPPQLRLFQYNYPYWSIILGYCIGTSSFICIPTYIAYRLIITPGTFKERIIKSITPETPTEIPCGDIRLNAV
Protocol: as §2, §3, §4

SMILES: CCNC(C)C(=O)c1ccccc1 (stereo not shown) [NEC, N-ethyl-cathinone]
- shape of the dose response of HLA (Swiss CD-1 mice [1]): dose–response relationship
- Ki (hDAT): 2330 nM
- CPP preference score vs saline (Swiss CD-1 mice [2]): significant preference score
- CPP rewarding effect vs saline (Swiss CD-1 mice [2]; 10 mg/kg i.p.): produce rewarding effects
- Ki (hSERT): > 100000 nM

SMILES: CCCCCC(NCC)C(=O)c1ccccc1 (stereo not shown) [NEHP, N-ethyl-heptedrone]
- time at which the locomotor effect ended (Swiss CD-1 mice [1]; 10 mg/kg i.p., 60 min session): < 60 min
- shape of the dose response of HLA (Swiss CD-1 mice [1]): dose–response relationship
- Ki (hDAT): 107 nM
- CPP rewarding effect vs saline (Swiss CD-1 mice [2]; any dose tested (3, 10, 30 mg/kg i.p.)): did not induce a significant rewarding effect
- Ki (hSERT): 40600 nM

SMILES: CCNC(CC)C(=O)c1ccccc1 (stereo not shown) [NEB, N-ethyl-buphedrone]
- HLA (total distance traveled in 60 min) vs saline (Swiss CD-1 mice [1]): significant effect
- duration of the significant increase in locomotor activity (Swiss CD-1 mice [1]): 15 min
- shape of the dose response of HLA (Swiss CD-1 mice [1]): ceiling effect
- Ki (hDAT): 198 nM
- CPP preference score vs saline (Swiss CD-1 mice [2]): significant preference score
- CPP rewarding effect vs saline (Swiss CD-1 mice [2]; 10 mg/kg i.p.): produce rewarding effects
- Ki (hSERT): 90100 nM

SMILES: CCCCC(NCC)C(=O)c1ccccc1 (stereo not shown) [NEH, N-ethyl-hexedrone]
- shape of the dose response of HLA (Swiss CD-1 mice [1]): dose–response relationship
- Ki (hDAT): 121 nM
- CPP rewarding effect vs saline (Swiss CD-1 mice [2]; 10 mg/kg i.p.): produce rewarding effects
- Ki (hSERT): 35900 nM

SMILES: CCCC(NCC)C(=O)c1ccccc1 (stereo not shown) [NEPD, N-ethyl-pentedrone]
- HLA (total distance traveled in 60 min) vs saline (Swiss CD-1 mice [1]): significant effect
- duration of the significant increase in locomotor activity (Swiss CD-1 mice [1]): 40 min
- shape of the dose response of HLA (Swiss CD-1 mice [1]): ceiling effect
- Ki (hDAT): 42 nM
- CPP preference score vs saline (Swiss CD-1 mice [2]): significant preference score
- CPP rewarding effect vs saline (Swiss CD-1 mice [2]; 10 mg/kg i.p.): produce rewarding effects
- Ki (hSERT): 24600 nM
